From patent US6379083B1, “Method for the remediation of soil contaminated with organic halide compounds” (Hazama Corporation, priority 1998, dated 2002) come the findings set out here.

A word on the solubility: it is how much of the substance goes into solution per volume.

This data set can be described thus: Solubility of volatile organic halide in carbonic acid aqueous solution (Example 3). Type of data set: physicochemical. To be noted: for solubility at 24 h: 20.7 °C, thermodynamic from solid, read-out: Detected amount of trichloroethylene (saturated solubility). The protocol:
Using a carbonic acid aqueous solution having carbonated ion-concentration of 7,700 mg/L (i.e., 7,700 ppm) and natural water (trade name: Eapin; carbonated ion-concentration of 0 mg/L), four kinds of carbonic acid aqueous solutions (i.e., carbonated ion-concentration: 340 mg/L, 920 mg/L, 1700 mg/L and 7,700 mg/L) were prepared.
Using a syringe, 0.14 g of excess trichloroethylene was added to the water or solution, and each linked part in the Glass-Vials was sealed by the use of Teflon tape. The mixture was stirred for 30 minutes using a magnetic stirrer, and allowed to stand for 24 hours. Thereafter, a supernatant fraction was quickly collected and extracted to give trichloroethylene. These procedures were performed at temperature of 20.7° C.
As for the above natural water and carbonic acid aqueous solutions before the injection into the glass-bialbin, their carbonated ion-concentrations were measured by means of neutralization titration. The titration was conducted according to strontium chloride/monobasic acid-base titration described in JIS K 0101 25.
To the supernatant fraction obtained above, n-hexane for test of remaining agriculture chemical was added in the same amount as the fraction, and vigorously stirred to give an n-hexane layer. The layer was analyzed by a gas chromatography in the following conditions:
Analyzer: GC-17A type available from Shimadzu Corp.
Column: AQUATAC 75 m×0.53 mmφ
Column Temperature: 210° C.

In brackets after ≈: the same amount, converted by molar mass. Read-outs that look alike come from different tables or passages of the source.

For the compound `ClC=C(Cl)Cl` [trichloroethylene], the solubility at 24 h is, setting by setting: (aqueous buffer, Carbonated ion concentration 340 mg/L) 780 µg/mL (≈ 5.94 mM); (aqueous buffer, Carbonated ion concentration 920 mg/L) 1000 µg/mL (≈ 7.61 mM); (aqueous buffer, Carbonated ion concentration 7700 mg/L) 1300 µg/mL (≈ 9.89 mM); (natural water (Eapin; carbonated ion concentration 0 mg/L), water, Carbonated ion concentration 0 mg/L (natural water)) 750 µg/mL (≈ 5.71 mM). Under “Carbonated ion concentration 1700 mg/L, 20.7° C.”, the “Detected amount of trichloroethylene (saturated solubility)” value was determined as 1100 µg/mL.
